The text below walks through data of patent US20240400553A1, “AMINE BASED MATRIPTASE 2 INHIBITORS AND USES THEREOF” (Disc Medicine, Inc., priority 2023, published 2024).

The target of the assay is T1, Human Recombinant Matriptase 2 (Homo sapiens, UniProt Q8IU80).
T1 construct: made in house
T1 sequence (Q8IU80 1-811): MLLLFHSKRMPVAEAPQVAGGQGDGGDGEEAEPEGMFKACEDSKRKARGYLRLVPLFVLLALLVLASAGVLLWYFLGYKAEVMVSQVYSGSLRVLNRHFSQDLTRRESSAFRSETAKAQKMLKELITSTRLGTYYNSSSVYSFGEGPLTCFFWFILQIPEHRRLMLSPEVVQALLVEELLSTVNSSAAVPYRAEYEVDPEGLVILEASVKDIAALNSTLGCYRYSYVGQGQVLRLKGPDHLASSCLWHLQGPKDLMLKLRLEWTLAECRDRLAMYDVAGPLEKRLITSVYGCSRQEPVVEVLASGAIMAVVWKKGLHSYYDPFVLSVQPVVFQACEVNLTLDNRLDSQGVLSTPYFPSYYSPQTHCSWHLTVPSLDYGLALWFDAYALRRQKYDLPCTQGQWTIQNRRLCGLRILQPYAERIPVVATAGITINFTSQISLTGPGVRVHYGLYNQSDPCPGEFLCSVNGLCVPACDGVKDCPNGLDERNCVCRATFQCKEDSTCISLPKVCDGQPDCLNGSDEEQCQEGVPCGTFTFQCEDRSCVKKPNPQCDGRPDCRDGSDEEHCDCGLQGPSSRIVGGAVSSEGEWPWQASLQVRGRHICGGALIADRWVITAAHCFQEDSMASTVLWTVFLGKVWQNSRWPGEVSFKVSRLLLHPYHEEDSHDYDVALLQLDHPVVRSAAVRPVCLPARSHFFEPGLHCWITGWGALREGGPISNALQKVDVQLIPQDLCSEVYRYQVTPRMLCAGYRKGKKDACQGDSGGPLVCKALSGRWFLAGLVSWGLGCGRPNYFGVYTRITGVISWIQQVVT
The assay can be described thus: Matriptase 2 inhibition, fluorescence based assay (Method I). It is filed as biochemical. The settings on record: Table A; Ki of Matriptase-2; read-out: Mat-2 Ki. In outline: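 Fluorogenic readout (Ex 360/Em 480 nm) taken 60 min after adding 62 μM Boc-Gln-Ala-Arg-AMC, following 30-min enzyme–compound preincubation at 25 °C. Conditions: 3.5 nM in-house enzyme, pH 7.5 Tris/NaCl/gelatin buffer, 1% DMSO; percent inhibition versus concentration fitted by variable-slope sigmoidal regression.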
Usually Ki stands for the dissociation constant of the complex between target and ligand, obtained from inhibition or displacement. With `NCc1ccc2cc(C(=O)OCCF)n(Cc3cc(NS(=O)(=O)Cc4ccccc4)cc4ccccc34)c2n1` [Compound 105, 2-fluoroethyl 6-(amino-methyl)-1-{[3-(phenyl-methanesulfonamido)-naphthalen-1-yl]methyl}-1H-pyrrolo[2,3-b]pyr-idine-2-carboxylate], the Ki was 100 to 500 nM.

Turning to `CC(C)(C)n1ccc(COC(=O)c2cc3ccc(CN)nc3n2Cc2cc(NS(=O)(=O)Cc3ccccc3)cc3ccccc23)n1` [Compound 106, (1-tert-butyl-1H-pyrazol-3-yl)methyl 6-(amino-methyl)-1-{[3-(phenyl-methanesulfonamido)-naphthalen-1-yl]methyl}-1H-pyrrolo[2,3-b]pyr-idine-2-carboxylate], the inhibition constant Ki was 100 to 500 nM.

On to `NCc1ccc2cc(C(=O)OCC3CCN(CC(F)F)CC3)n(Cc3cc(NS(=O)(=O)Cc4ccccc4)cc4ccccc34)c2n1` [Compound 107, [1-(2,2-difluoroethyl)-piperidin-4-yl]methyl 6-(aminomethyl)-1-{[3-(phenylmethanesulfon-amido)naphthalen-1-yl]-methyl}-1H-pyrrolo[2,3-b]pyridine-2-carboxylate], for which the inhibitory constant (Ki) was in the range of 100 to 500 nM.

`CN(c1cc(Cn2c(C(=O)O)cc3ccc(CN)nc32)c2ccccc2c1)S(=O)(=O)Cc1ccccc1` [Compound 109, 6-(aminomethyl)-1-{[3-(N-methylphenylmeth-anesulfonamido)naph-thalen-1-yl]methyl}-1H-pyrrolo[2,3-b]pyridine-2-carboxylic acid]: the inhibition constant (Ki) was in the range of 100 to 500 nM.

As for `CC(C)(C)n1nccc1COC(=O)c1cc2ccc(CN)nc2n1Cc1cc(NS(=O)(=O)Cc2ccccc2)cc2ccccc12` [Compound 110], the inhibition constant (Ki) was 100 to 500 nM.

As to `CC(C)n1nccc1COC(=O)c1cc2ccc(CN)nc2n1Cc1cc(NS(=O)(=O)Cc2ccccc2)cc2ccccc12` [Compound 111, [1-(propan-2-yl)-1H-pyrazol-5-yl]methyl 6-(aminomethyl)-1-{[3-(phenylmethanesulfon-amido)naphthalen-1-yl]-methyl}-1H-pyrrolo-[2,3-b]pyridine-2-car-boxylate], the inhibition constant Ki was 100 to 500 nM.

In the case of `CC(C)OC(=O)c1cc2ccc(CN)nc2n1Cc1cc(NS(=O)(=O)Cc2ccccc2)cc2ccccc12` [Compound 112, propan-2-yl 6-(amino-methyl)-1-{[3-(phenyl-methanesulfonamido)-naphthalen-1-yl]methyl}-1H-pyrrolo[2,3-b]pyr-idine-2-carboxylate], the inhibitory constant (Ki) is 500 to 3000 nM.

Regarding `NCc1ccc2cc(C(=O)O)n(Cc3cc(NS(=O)(=O)C4(c5ccccc5)CC4)cc4ccccc34)c2n1` [Compound 113, 6-(aminomethyl)-1-{[3-(1-phenylcyclopropane-sulfonamido)naphthalen-1-yl]methyl}-1H-pyr-rolo[2,3-b]pyridine-2-carboxylic acid], the inhibition constant (Ki) was 500 to 3000 nM.

In the case of `NCc1ccc2cc(C(=O)OCCn3cccc3)n(Cc3cc(NS(=O)(=O)Cc4ccccc4)cc4ccccc34)c2n1` [Compound 114, 2-(1H-pyrrol-1-yl)ethyl 6-(aminomethyl)-1-{[3-(phenylmethanesulfon-amido)naphthalen-1-yl]-methyl}-1H-pyrrolo[2,3-b]pyridine-2-carboxylate], the Ki fell in the range of 500 to 3000 nM.

As to `CCOC(=O)c1cc2ccc(CN)nc2n1Cc1cc(NS(=O)(=O)Cc2ccccc2)cc2ccccc12` [Compound 115, ethyl 6-(aminomethyl)-1-{[3-(phenylmethanesul-fonamido)naphthalen-1-yl]methyl}-1H-pyrrolo-[2,3-b]pyridine-2-car-boxylate], the Ki fell in the range of 500 to 3000 nM.

With `COC(=O)c1cc2ccc(CN)nc2n1Cc1cc(NS(=O)(=O)Cc2ccccc2)cc2ccccc12` [Compound 116, methyl 6-(aminomethyl)-1-{[3-(phenylmethane-sulfonamido)naphthalen-1-yl]methyl}-1H-pyrrolo-[2,3-b]pyridine-2-car-boxylate], the inhibitory constant (Ki) lay within 500 to 3000 nM.

On to `NCc1ccc2cc(C(=O)OCC34CC(F)(C3)C4)n(Cc3cc(NS(=O)(=O)Cc4ccccc4)cc4ccccc34)c2n1` [Compound 117, {3-fluorobicyclo[1.1.1]-pentan-1-yl}methyl 6-(aminomethyl)-1-{[3-(phenylmethanesulfon-amido)naphthalen-1-yl]-methyl}-1H-pyrrolo[2,3-b]pyridine-2-carboxylate], for which the Ki lay in the range of 500 to 3000 nM.

`NCc1ccc2cc(C(=O)OCC3CC3)n(Cc3cc(NS(=O)(=O)Cc4ccccc4)cc4ccccc34)c2n1` [Compound 120, cyclopropylmethyl 6-(aminomethyl)-1-{[3-(phenylmethanesulfon-amido)naphthalen-1-yl]-methyl}-1H-pyrrolo[2,3-b]pyridine-2-carboxylate]: the Ki lay in the range of 500 to 3000 nM.

In the case of `CC(C)COC(=O)c1cc2ccc(CN)nc2n1Cc1cc(NS(=O)(=O)Cc2ccccc2)cc2ccccc12` [Compound 121, 2-methylpropyl 6-(aminomethyl)-1-{[3-(phenylmethanesulfon-amido)naphthalen-1-yl]-methyl}-1H-pyrrolo[2,3-b]pyridine-2-carboxylate], the Ki is 500 to 3000 nM.

As to `CN(CCOC(=O)c1cc2ccc(CN)nc2n1Cc1cc(NS(=O)(=O)Cc2ccccc2)cc2ccccc12)C(=O)OC(C)(C)C` [Compound 122, 2-{[(tert-butoxy)carbon-yl](methyl)amino}ethyl 6-(aminomethyl)-1-{[3-(phenylmethanesulfon-amido)naphthalen-1-yl]-methyl}-1H-pyrrolo[2,3-b]pyridine-2-carboxylate], the Ki lay in the range of 500 to 3000 nM.

Regarding `NCc1ccc2cc(C(=O)OCc3ccccc3)n(Cc3cc(NS(=O)(=O)Cc4ccccc4)cc4ccccc34)c2n1` [Compound 123, benzyl 6-(aminomethyl)-1-{[3-(phenylmethane-sulfonamido)naphthalen-1-yl]methyl}-1H-pyr-rolo[2,3-b]pyridine-2-carboxylate], the Ki lay in the range of 500 to 3000 nM.

In the case of `N#Cc1ccc(OC(=O)c2cc3ccc(CN)nc3n2Cc2cc(NS(=O)(=O)Cc3ccccc3)cc3ccccc23)cc1` [Compound 125, 4-cyanophenyl 6-(aminomethyl)-1-{[3-(phenylmethanesulfon-amido)naphthalen-1-yl]-methyl}-1H-pyrrolo-[2,3-b]pyridine-2-car-boxylate], the Ki lay within 500 to 3000 nM.

With `CN(CCOC(=O)c1cc2ccc(CN)nc2n1Cc1cc(NS(=O)(=O)Cc2ccccc2)cc2ccccc12)c1ccccc1` [Compound 126, 2-[methyl(phenyl)-amino]ethyl 6-(amino-methyl)-1-{[3-(phenyl-methanesulfonamido)-naphthalen-1-yl]methyl}-1H-pyrrolo[2,3-b]pyr-idine-2-carboxylate], the Ki was 500 to 3000 nM.

For the molecule `NCc1ccc2cc(C(=O)OCCN3CCOC3=O)n(Cc3cc(NS(=O)(=O)Cc4ccccc4)cc4ccccc34)c2n1` [Compound 130], the Ki lay in the range of 100 to 500 nM.

For the molecule `CC(C)N(CCOC(=O)c1cc2ccc(CN)nc2n1Cc1cc(NS(=O)(=O)Cc2ccccc2)cc2ccccc12)C(C)C` [Compound 131, 2-[bis(propan-2-yl)-amino]ethyl 6-(amino-methyl)-1-{[3-(phenyl-methanesulfonamido)-naphthalen-1-yl]meth-yl}-1H-pyrrolo[2,3-b]-pyridine-2-carboxylate], the Ki was in the range of 100 to 500 nM.

Consider `NCc1ccc2cc(C(=O)OCCCN3CCOCC3)n(Cc3cc(NS(=O)(=O)Cc4ccccc4)cc4ccccc34)c2n1` [Compound 133, 3-(morpholin-4-yl)prop-yl 6-(aminomethyl)-1-{[3-(phenylmethanesul-fonamido)naphthalen-1-ylmethyl}-1H-pyrrolo-[2,3-b]pyridine-2-car-boxylate], for which the Ki fell in the range of 100 to 500 nM.

With `CN(CCOC(=O)c1cc2ccc(CN)nc2n1Cc1cc(NS(=O)(=O)Cc2ccccc2)cc2ccccc12)Cc1ccccc1` [Compound 134, 2-[benzyl(methyl)-amino]ethyl 6-(amino-methyl)-1-{[3-(phenyl-methanesulfonamido)-naphthalen-1-yl]methyl}-1H-pyrrolo[2,3-b]pyr-idine-2-carboxylate], the Ki lay in the range of 100 to 500 nM.

Take `CN1CCN(CCOC(=O)c2cc3ccc(CN)nc3n2Cc2cc(NS(=O)(=O)Cc3ccccc3)cc3ccccc23)CC1` [Compound 135, 2-(4-methylpiperazin-1-ylethyl 6-(aminomethyl)-1-{[3-(phenylmethane-sulfonamido)naphthalen-1-yl]methyl}-1H-pyrrolo-[2,3-b]pyridine-2-car-boxylate]: the Ki was at most 100 nM.

`NCc1ccc2cc(C(=O)OCCN(Cc3ccccc3)CC3CC3)n(Cc3cc(NS(=O)(=O)Cc4ccccc4)cc4ccccc34)c2n1` [Compound 136, 2-[benzyl(cyclopropyl-methyl)amino]ethyl 6-(aminomethyl)-1-{[3-(phenylmethanesulfon-amido)naphthalen-1-yl]-methyl}-1H-pyrrolo[2,3-b]pyridine-2-carboxylate]: the Ki was in the range of 500 to 3000 nM.
